Measured values reported in patent US7700522B2, “α-Oxygenated or α-thiolated carboxylic acid phenethylamide derivatives” (Syngenta Crop Protection, Inc., priority 2001, dated 2010).

Legend:
Format in all cases: in vivo
Phytophthora [1] = assay: D-3a residual-protective action against Phytophthora on potato plants; conditions: test D-3a, potato plants (Bintje), sprayed 48 hours before infection, untreated plants attack 80 to 100%, read-out: inhibit fungal infestations
Experimental: (§1) D-3: Action Against Phytophthora on Potato Plants
(§2) a) Residual-protective Action
2-3 week old potato plants (Bintje variety) are sprayed with a spray mixture (0.02% active ingredient) prepared from a wettable powder formulation of the test compound. After 48 hours, the treated plants are infected with a sporangia suspension of the fungus. Fungus infestation is evaluated after incubation of the infected plants for 4 days at 90-100% relative humidity and +20° C.

Phytophthora [2] = assay: D-2b systemic action against Phytophthora on tomato plants; conditions: test D-2b, soil watering 96 hours before infection, untreated plants attack 80-100%, read-out: inhibit fungal infestations
Experimental: (§3) D-2: Action Against Phytophthora on Tomato Plants
After a cultivation period of 3 weeks, tomato plants are watered with a spray mixture (0.02% active ingredient based on the volume of the soil) prepared from a wettable powder formulation of the test compound. […] After 96 hours, the treated plants are infected with a sporangia suspension of the fungus. Fungus infestation is evaluated after incubation of the infected plants for 4 days at 90-100% relative humidity and +20° C.

Plasmopara viticola [3] = assay: D-1a residual-protective action against Plasmopara viticola on vines; conditions: test D-1a, vine seedlings, sprayed 24 hours before infection, untreated plants attack 80-100%, read-out: inhibit fungal infestations
Experimental: (§4) D-1: Action Against Plasmopara Viticola on Vines
as §2
Vine seedlings are sprayed at the 4- to 5-leaf stage with a spray mixture (0.02% active ingredient) prepared from a wettable powder formulation of the test compound. After 24 hours, the treated plants are infected with a sporangia suspension of the fungus. Fungus infestation is evaluated after incubation for 6 days at 95-100% relative humidity and +20° C.

Phytophthora [4] = assay: D-2a residual-protective action against Phytophthora on tomato plants; conditions: test D-2a, sprayed 48 hours before infection, untreated plants attack 80-100%, read-out: inhibit fungal infestations
Experimental: as §3, §2
After a cultivation period of 3 weeks, tomato plants are sprayed with a spray mixture (0.02% active ingredient) prepared from a wettable powder formulation of the test compound. After 48 hours, the treated plants are infected with a sporangia suspension of the fungus. Fungus infestation is evaluated after incubation of the infected plants for 5 days at 90-100% relative humidity and +20° C.

Phytophthora [5] = assay: D-3b systemic action against Phytophthora on potato plants; conditions: test D-3b, potato plants (Bintje), soil watering 48 hours before infection, untreated plants attack 80 to 100%, read-out: inhibit fungal infestations
Experimental: as §1
2-3 week old potato plants (Bintje variety) are watered with a spray mixture (0.02% active ingredient based on the volume of the soil) prepared from a wettable powder formulation of the test compound. […] After 48 hours, the treated plants are infected with a sporangia suspension of the fungus. Fungus infestation is evaluated after incubation of the infected plants for 4 days at 90-100% relative humidity and +20° C.

Plasmopara viticola [6] = assay: D-1b residual-curative action against Plasmopara viticola on vines; conditions: test D-1b, vine seedlings, sprayed 24 hours after infection, untreated plants attack 80-100%, read-out: inhibit fungal infestations
Experimental: as §4
b) Residual-curative Action
Vine seedlings are infected at the 4- to 5-leaf stage with a sporangia suspension of the fungus. After incubation for 24 hours in a humidity chamber at 95-100% relative humidity and +20° C., the infected plants are dried and sprayed with a spray mixture (0.02% active ingredient) prepared from a wettable powder formulation of the test compound. After the spray coating has dried, the treated plants are placed in the humidity chamber again. Fungus infestation is evaluated 6 days after infection.

Measured: inhibition at 200 ppm

C#CCOc1ccc(CCNC(=O)C(Cc2ccc(Br)cc2)OCC#C)cc1OC (stereo not shown) [Compound E1.15, 3-(4-bromo-phenyl)-N-[2-(3-methoxy-4-prop-2-ynyloxy-phenyl)-ethyl]-2-prop-2-ynyloxy-propionamide]
80 to 100%: all assays above

C#CCOc1ccc(CCNC(=O)C(Cc2ccc(C)cc2)OCC#C)cc1OC (stereo not shown) [Compound E1.18, N-[2-(3-methoxy-4-prop-2-ynyloxy-phenyl)-ethyl]-2-prop-2-ynyloxy-3-p-tolyl-propionamide]
80 to 100%: Plasmopara viticola [3] | Plasmopara viticola [6]

C#CCOc1ccc(CCNC(=O)C(Cc2ccccc2)OCC#C)cc1OC (stereo not shown) [Compound E1.03, N-[2-(3-methoxy-4-prop-2-ynyloxy-phenyl)-ethyl]-3-phenyl-2-prop-2-ynyloxy-propionamide]
80 to 100%: all assays above

C#CCOc1ccc(CCNC(=O)C(Cc2ccc(Cl)cc2)OCC#C)cc1OC (stereo not shown) [Compound E1.10, 3-(4-chloro-phenyl)-N-[2-(3-methoxy-4-prop-2-ynyloxy-phenyl)-ethyl]-2-prop-2-ynyloxy-propionamide]
80 to 100%: all assays above

C#CCOc1ccc(CCNC(=O)C(Cc2ccc(CC)cc2)OCC#C)cc1OC (stereo not shown) [Compound E1.22, 3-(4-ethyl-phenyl)-N-[2-(3-methoxy-4-prop-2-ynyloxy-phenyl)-ethyl]-2-prop-2-ynyloxy-propionamide]
80 to 100%: Phytophthora [2] | Plasmopara viticola [3] | Phytophthora [4] | Plasmopara viticola [6]

C#CCOc1ccc(CCNC(=O)C(Cc2ccc(F)cc2)OCC#C)cc1OC (stereo not shown) [Compound E1.06, 3-(4-fluoro-phenyl)-N-[2-(3-methoxy-4-prop-2-ynyloxy-phenyl)-ethyl]-2-prop-2-ynyloxy-propionamide]
80 to 100%: Phytophthora [1] | Phytophthora [2] | Phytophthora [4] | Phytophthora [5]
